In patent US9850216B2 (H. LEE MOFFITT CANCER CENTER AND RESEARCH INSTITUTE, INC., priority 2013, dated 2017):
Where “and” joins values, the source holds several entries; their conditions need not be identical. Identical values can stand only once. Like-named read-outs stand apart in the source and are kept apart here.

Biological target: ACK1 (Homo sapiens, UniProt Q07912)
Assay: ACK1 ELISA: phosphorylation of AKT-derived peptide
Type: biochemical
[1] = 10 μM, Table 1, replicate values listed
[2] = 10 μM, Table 1, replicate values listed, read-out: % Inhibition at 10 μM (ELISA)
[3] = 10 μM, Table 2, library 9, read-out: % Inhibition @ 10 μM (ELISA)
[4] = 10 μM, read-out: ACK1 inhibition at 10 μM (ELISA)
[5] = 10 μM, Table 1, replicate values listed, hydrochloride

Sequence of ACK1 (Q07912 whole entry): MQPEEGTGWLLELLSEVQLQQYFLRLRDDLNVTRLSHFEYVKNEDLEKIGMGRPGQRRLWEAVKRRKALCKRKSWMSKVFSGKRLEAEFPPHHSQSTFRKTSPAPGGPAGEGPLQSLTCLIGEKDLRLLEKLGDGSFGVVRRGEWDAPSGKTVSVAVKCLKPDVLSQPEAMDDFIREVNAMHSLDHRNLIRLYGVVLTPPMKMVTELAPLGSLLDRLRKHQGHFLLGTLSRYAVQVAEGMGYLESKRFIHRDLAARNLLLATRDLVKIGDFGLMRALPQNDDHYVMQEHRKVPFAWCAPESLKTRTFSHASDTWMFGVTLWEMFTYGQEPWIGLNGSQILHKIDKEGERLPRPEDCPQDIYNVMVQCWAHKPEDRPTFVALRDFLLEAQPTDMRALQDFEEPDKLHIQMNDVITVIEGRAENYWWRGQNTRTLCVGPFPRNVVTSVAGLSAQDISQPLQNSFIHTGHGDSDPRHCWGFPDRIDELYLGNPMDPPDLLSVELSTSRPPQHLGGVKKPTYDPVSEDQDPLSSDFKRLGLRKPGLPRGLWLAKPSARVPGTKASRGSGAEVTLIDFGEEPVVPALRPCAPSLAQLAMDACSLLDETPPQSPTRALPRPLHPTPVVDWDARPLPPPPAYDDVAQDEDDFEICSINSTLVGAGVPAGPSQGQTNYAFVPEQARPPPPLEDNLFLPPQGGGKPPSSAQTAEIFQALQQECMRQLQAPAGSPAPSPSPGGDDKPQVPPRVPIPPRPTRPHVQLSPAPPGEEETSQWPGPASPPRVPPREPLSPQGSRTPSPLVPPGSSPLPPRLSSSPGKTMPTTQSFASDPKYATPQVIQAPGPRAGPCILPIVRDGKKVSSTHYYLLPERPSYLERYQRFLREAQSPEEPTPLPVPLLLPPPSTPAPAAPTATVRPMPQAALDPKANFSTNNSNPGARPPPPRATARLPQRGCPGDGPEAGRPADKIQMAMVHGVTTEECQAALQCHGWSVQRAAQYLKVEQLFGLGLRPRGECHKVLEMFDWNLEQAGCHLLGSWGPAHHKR

SMILES | % Inhibition at 10 μM (ELISA) [1] | inhibition at 10 µM [2] | also measured
Oc1ccc(Nc2ncc(F)c(NCC3CCCO3)n2)cc1 (stereo not shown) [DZ1-112, 4-(5-fluoro-4-((tetrahydrofuran-2-yl)methylamino)pyrimidin-2-ylamino)phenol] | 33% | 53% | 
CN1CCN(c2ccc(Nc3ncc(Br)c(NCC4CCCO4)n3)cc2)CC1 (stereo not shown) [Compound 18] |  |  | inhibition at 10 µM [3]: 67 ± 0.2%; inhibition at 10 µM [4]: 67%
Brc1cnc(Nc2ccc(N3CCOCC3)cc2)nc1NCC1CCCO1 (stereo not shown) [Compound 9h] |  |  | inhibition at 10 µM [3]: 89 ± 1.4%
Cl.O=C(O)Cc1ccc(Nc2ncc(Cl)c(NC[C@H]3CCCO3)n2)cc1 [NT1-012, (R)-2-(4-(5-Chloro-4-((tetrahydrofuran-2-yl)methylamino)pyrimidin-2-ylamino)phenyl)acetic acid] | 74% | 68% | 
CN1CCN(c2ccc(Nc3nccc(NCC4CCCO4)n3)cc2)CC1 (stereo not shown) [DZ1-104] | 13% | 19% | 
Cl.O=C(Nc1c(F)cccc1Cl)c1cnc(Nc2ccc(O)c(F)c2)nc1NCC1CCCO1 (stereo not shown) [YL7-170-2, N-(2-chloro-6-fluorophenyl)-2-(3-fluoro-4-hydroxyphenylamino)-4-((tetrahydrofuran-2-yl)methylamino)pyrimidine-5-carboxamide hydrochloride] |  | 65% | % Inhibition at 10 μM (ELISA) [5]: 68% and 67%
CCOC(=O)C1CCN(c2ccc(Nc3ncc(C(=O)Nc4c(F)cccc4Cl)c(NCC4CCCO4)n3)cc2)CC1.Cl (stereo not shown) [DZ1-094, Ethyl 1-(4-(5-(2-chloro-6-fluorophenylcarbamoyl)-4-((tetrahydrofuran-2-yl)methylamino)pyrimidin-2-ylamino)phenyl)piperidine-4-carboxylate] | 73% | 61% | 
Clc1cnc(Nc2ccc(CN3CCCCC3)cc2)nc1NCC1CCCO1 (stereo not shown) [MH1-035-3, 5-chloro-N2-(4-(piperidin-1-ylmethyl)phenyl)-N4-((tetrahydrofuran-2-yl)methyl)pyrimidine-2,4-diamine] | 72% | 77% | 
Cl.O=C(O)CCc1ccc(Nc2ncc(Cl)c(NC[C@H]3CCCO3)n2)cc1 [NT1-014, (R)-3-(4-(5-Chloro-4-((tetrahydrofuran-2-yl)methylamino)pyrimidin-2-ylamino)phenyl)propanoic acid] | 75% | 61% | 
CCOC(=O)C1CCN(c2ccc(Nc3ncc(Cl)c(NC[C@@H]4CCCO4)n3)cc2)CC1.Cl [DZ1-079, (S)-ethyl1-(4-(5-chloro-4-((tetrahydrofuran-2-yl)methylamino)pyrimidin-2-ylamino)phenyl)piperidine-4-carboxylate] | 69% | 54% | 
Cl.O=C(O)Cc1ccc(Nc2ncc(Cl)c(NCC3CCCO3)n2)cc1 (stereo not shown) [NT1-006, 2-(4-(5-Chloro-4-((tetrahydrofuran-2-yl)methylamino)pyrimidin-2-ylamino)phenyl)acetic acid] | 81% | 72% | 
Cl.Clc1cnc(Nc2ccc(C3CCNCC3)cc2)nc1NCC1CCCO1 (stereo not shown) [NT1-005, 5-Chloro-N^2-(4-(piperidin-4-yl)phenyl)-N^4-((tetrahydrofuran-2-yl)methyl)pyrimidine-2,4-diamine] | 80% | 79% | 
COc1ccc(Nc2ncc(Br)c(NCC3CCCO3)n2)cc1.Cl (stereo not shown) [SK1-022, 5-Bromo-N2-(4-methoxyphenyl)-N4-((tetrahydrofuran-2-yl)methyl)pyrimidine-2,4-diamine] | 67% | 68% | 
Cl.Oc1ccc(Nc2ncc(F)c(NCC3CCCO3)n2)cc1F (stereo not shown) [YL7-164, 2-Fluoro-4-(5-fluoro-4-((tetrahydrofuran-2-yl)methylamino)pyrimidin-2-ylamino)phenol hydrochloride] |  | 37% | % Inhibition at 10 μM (ELISA) [5]: 46% and 55%
Clc1cnc(Nc2ccc(N3CCNCC3)cc2)nc1NCC1CCCO1 (stereo not shown) [MH1-007-3, 5-chloro-N2-(4-(piperazin-1-yl)phenyl)-N4-((tetrahydrofuran-2-yl)methyl)pyrimidine-2,4-diamine] | 73% and 78% (2×) | 91% | 
Cc1cnc(Nc2ccc(O)c(F)c2)nc1NCC1CCCO1.Cl (stereo not shown) [YL7-170-1, 2-Fluoro-4-(5-methyl-4-((tetrahydrofuran-2-yl)methylamino)pyrimidin-2-ylamino)phenol hydrochloride] |  |  | % Inhibition at 10 μM (ELISA) [5]: 51% and 29% and 47%
COc1ccc(Nc2ncc(C(=O)Nc3c(F)cccc3Cl)c(NCC3CCCO3)n2)cc1 (stereo not shown) [YL7-104-1, N-(2-chloro-6-fluorophenyl)-2-(4-methoxyphenylamino)-4-((tetrahydrofuran-2-yl)methylamino)pyrimidine-5-carboxamide] | 76% and 61% and 37% and 27% |  | 
Clc1cnc(Nc2ccc(N3CCNCC3)cc2)nc1NCC1CCCO1 (stereo not shown) [Compound 14] |  |  | inhibition at 10 µM [3]: 66 ± 1.5%; inhibition at 10 µM [4]: 66%
CCOC(=O)C1CCN(c2ccc(Nc3ncc(Cl)c(NC[C@H]4CCCO4)n3)cc2)CC1.Cl [DZ1-070, (R)-ethyl1-(4-(5-chloro-4-((tetrahydrofuran-2-yl)methylamino)pyrimidin-2-ylamino)phenyl)piperidine-4-carboxylate] | 65% | 52% | 
O=C(O)C1CCN(c2ccc(Nc3ncc(Cl)c(NCC4CCCO4)n3)cc2)CC1 (stereo not shown) [YL8-050, 1-(4-(5-Chloro-4-((tetrahydrofuran-2-yl)methylamino)pyrimidin-2-ylamino)phenyl)piperidine-4-carboxylic acid] | 96% | 87% | 
CCOC(=O)C1CCN(c2ccc(Nc3ncc(Br)c(NCC4CCCO4)n3)cc2)CC1.Cl (stereo not shown) [DZ1-093, Ethyl 1-(4-(5-bromo-4-((tetrahydrofuran-2-yl)methylamino)pyrimidin-2-ylamino)phenyl)piperidine-4-carboxylate] | 65% | 64% | 
Cl.O=C(O)CCc1ccc(Nc2ncc(Cl)c(NCC3CCCO3)n2)cc1 (stereo not shown) [NT1-007, 3-(4-(5-Chloro-4-((tetrahydrofuran-2-yl)methylamino)pyrimidin-2-ylamino)phenyl)propanoic acid] | 73% | 75% | 
Cl.O=C(O)Cc1ccc(Nc2ncc(Cl)c(NC[C@@H]3CCCO3)n2)cc1 [NT1-013, (S)-2-(4-(5-Chloro-4-((tetrahydrofuran-2-yl)methylamino)pyrimidin-2-ylamino)phenyl)acetic acid] | 73% and 46% |  | 
Cl.O=C(O)CCc1ccc(Nc2ncc(Br)c(NCC3CCCO3)n2)cc1 (stereo not shown) [NT1-023, 3-(4-(5-Bromo-4-((tetrahydrofuran-2-yl)methylamino)pyrimidin-2-ylamino)phenyl)propanoic acid] | 75% | 74% | 
O=C(O)C1CCN(c2ccc(Nc3ncc(Br)c(NCC4CCCO4)n3)cc2)CC1 (stereo not shown) | 84% |  | inhibition at 10 µM (read-out: % Inhibition at 10 μM (ELISA), 10 μM, Table 1, replicate values listed): 85%
Cl.Clc1cnc(Nc2ccc(C3CCNCC3)cc2)nc1NC[C@H]1CCCO1 [NT1-010, (R)-5-Chloro-N^2-(4-(piperidin-4-yl)phenyl)-N^4-((tetrahydrofuran-2-yl)methyl)pyrimidine-2,4-diamine] | 76% | 67% | 
Brc1cnc(Nc2ccc(N3CCNCC3)cc2)nc1NCC1CCCO1 (stereo not shown) [Compound 15] |  |  | inhibition at 10 µM [3]: 65%
